This note sets out measurements from PMC12888920, “MMP-9 regulates disulphide isomerase activity of TGM2 to enhance fusion glycoprotein-mediated syncytium formation of respiratory syncytial virus” (Protein & Cell, 2025).

This experiment has as its system RSV A2. The experiment in a line: Suppression of RSV progeny viral titer (FFA, 72 hpi) in HEp-2 cells. It is filed as cell-based, Respiratory syncytial virus. The note with it: 0.2 and 1 MOI. As to the method:
Figure 2. MMP-9 regulates late-stage RSV infection. (A) Time-of-addition assay design (left). HEp-2 cells were treated with metalloproteinase inhibitors under three regimens: “Full-time” (2 h pretreatment + continuous exposure), “Entry” (viral attachment phase only), or “Post-entry” (≥ 2 hpi). Cells infected with RSV A2 (MOI = 1) were analyzed for cytopathic effect inhibition at 72 hpi versus DMSO controls. mean ± SD, n = 3. (B) No inhibition of RSV F/G/SH pseudovirus entry by doxycycline hyclate or JNJ0966 (5 µmol/L). mean ± SD, n = 3. (C) Temporal sensitivity analysis (left). Viral RNA levels (22 hpi) in HEp-2 cells treated with 5 µmol/L inhibitors at defined intervals: pre-infection (−2–0 h), entry (0–2 h), or post-entry (2–16 h) phases (right). mean ± SD, n = 3. (D) Multicycle replication kinetics. […] (F) Dose-dependent suppression of RSV progeny (MOI = 0.2/1) by inhibitors (72 hpi), quantified by FFA. mean ± SD, n = 3. […]
To evaluate the effects of the compounds on RSV assembly and release, we treated HEp-2 cells with the inhibitors at 10 hpi (the onset of virion assembly) or 16 hpi (the onset of virion release) following RSV infection ([Malhi et al., 2021]). Supernatants were collected at 22 hpi for viral titer quantification. […] Furthermore, at 72 hpi, viral titers were quantified following infection with varying doses of RSV (0.2 and 1 MOI).

`COc1ccccc1Nc1nc(-c2sc(NC(C)=O)nc2C)cs1` [JNJ0966]: the “inhibition of RSV replication (viral titers)” value is “dose-dependent inhibition”.

Turning to Doxycycline hyclate, the “inhibition of RSV replication (viral titers)” value is listed as “dose-dependent inhibition”.
